Laboratory results as given in PubChem BioAssay AID1963858 (Molecular Pharmacology Branch, DTP, NCI, 2024).

Test system: HOP-62 multicell spheroids with HUVEC/MSC, viability
Assay: Anticancer human tumor HOP-62 cell line growth inhibition [KRAS2];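 also: viability read after a week of compound exposure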;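 as to viability, T/C: 100% = DMSO vehicle-treated spheroids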
Conditions: for viability, T/C: stronger effect = lower value
Outline: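 Combination screen of spheroid viability in tumor-cell co-cultures with endothelial (HUVEC) and mesenchymal stem cell stroma. Each agent was tested in half-log dilutions, topping at clinical Cmax or at 10 microM without a known Cmax.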

[1] = curve of first compound, second compound 0.1 µM
[2] = curve of first compound, second compound 0.316 µM
[3] = curve of first compound, second compound 1 µM
[4] = curve of first compound, second compound 3.16 µM
[5] = curve of first compound, second compound 10 µM
[6] = second compound 0.1 µM, first compound 0.01 µM
[7] = second compound 0.1 µM, first compound 0.0316 µM
[8] = second compound 0.1 µM, first compound 0.1 µM
[9] = second compound 0.316 µM, first compound 0.01 µM
[10] = second compound 0.316 µM, first compound 0.0316 µM
[11] = second compound 0.316 µM, first compound 0.1 µM
[12] = second compound 1 µM, first compound 0.01 µM
[13] = second compound 1 µM, first compound 0.0316 µM
[14] = second compound 1 µM, first compound 0.1 µM
[15] = second compound 3.16 µM, first compound 0.01 µM
[16] = second compound 3.16 µM, first compound 0.0316 µM
[17] = second compound 3.16 µM, first compound 0.1 µM
[18] = second compound 10 µM, first compound 0.01 µM
[19] = second compound 10 µM, first compound 0.0316 µM
[20] = second compound 10 µM, first compound 0.1 µM
[21] = second compound 0.1 µM, first compound 0.316 µM
[22] = second compound 0.1 µM, first compound 1 µM
[23] = second compound 0.1 µM, first compound 3.16 µM
[24] = second compound 0.316 µM, first compound 0.316 µM
[25] = second compound 0.316 µM, first compound 1 µM
[26] = second compound 0.316 µM, first compound 3.16 µM
[27] = second compound 1 µM, first compound 0.316 µM
[28] = second compound 1 µM, first compound 1 µM
[29] = second compound 1 µM, first compound 3.16 µM
[30] = second compound 3.16 µM, first compound 0.316 µM
[31] = second compound 3.16 µM, first compound 1 µM
[32] = second compound 3.16 µM, first compound 3.16 µM
[33] = second compound 10 µM, first compound 0.316 µM
[34] = second compound 10 µM, first compound 1 µM
[35] = second compound 10 µM, first compound 3.16 µM
[36] = second compound 0.1 µM, first compound 10 µM
[37] = second compound 0.316 µM, first compound 10 µM
[38] = second compound 1 µM, first compound 10 µM
[39] = second compound 3.16 µM, first compound 10 µM
[40] = second compound 10 µM, first compound 10 µM

SMILES	IC50 [1]	IC50 [2]	IC50 [3]	IC50 [4]	IC50 [5]	viability, T/C [7]	viability, T/C [8]	viability, T/C [10]	viability, T/C [11]	viability, T/C [13]	viability, T/C [14]	viability, T/C [16]	viability, T/C [17]	viability, T/C [19]	viability, T/C [20]	viability, T/C [21]	viability, T/C [22]	viability, T/C [23]	viability, T/C [24]	viability, T/C [25]	also measured
Cn1ncnc1[C@H]1c2n[nH]c(=O)c3cc(F)cc(c23)N[C@@H]1c1ccc(F)cc1 + CNCc1ccccc1-c1csc(C(C)Nc2nc(C)nc3cc(OC)c(OC)cc23)c1	> 100 nM	> 100 nM	> 100 nM	< 0.316 nM	< 0.316 nM	86.5%	71%	79.3%	74.9%	68.9%	53.7%	2.25%	5.87%	0.68%	0.19%	–	–	–	–	–	viability, T/C (second compound 0.1 µM, first compound 0.000316 µM): 98.2%; viability, T/C (second compound 0.1 µM, first compound 0.001 µM): 92.1%; viability, T/C (second compound 0.1 µM, first compound 0.00316 µM): 91.8%; viability, T/C [6]: 97.1%; viability, T/C (second compound 0.316 µM, first compound 0.000316 µM): 101%; viability, T/C (second compound 0.316 µM, first compound 0.001 µM): 93.9%; viability, T/C (second compound 0.316 µM, first compound 0.00316 µM): 89.4%; viability, T/C [9]: 83.7%; viability, T/C (second compound 1 µM, first compound 0.000316 µM): 69.2%; viability, T/C (second compound 1 µM, first compound 0.001 µM): 73%; viability, T/C (second compound 1 µM, first compound 0.00316 µM): 81.2%; viability, T/C [12]: 78.1%; viability, T/C (second compound 3.16 µM, first compound 0.000316 µM): 0.2%; viability, T/C (second compound 3.16 µM, first compound 0.001 µM): 0.14%; viability, T/C (second compound 3.16 µM, first compound 0.00316 µM): 0.99%; viability, T/C [15]: 0.21%; viability, T/C (second compound 10 µM, first compound 0.000316 µM): 0.12%; viability, T/C (second compound 10 µM, first compound 0.001 µM): 0.17%; viability, T/C (second compound 10 µM, first compound 0.00316 µM): 0.16%; viability, T/C [18]: 0.15%
CC(=O)OC12COC1CC(O)C1(C)C(=O)C(O)C3=C(C)C(OC(=O)C(O)C(NC(=O)OC(C)(C)C)c4ccccc4)CC(O)(C(OC(=O)c4ccccc4)C21)C3(C)C (configuration not stated) + C=CC(=O)N1CCN(c2nc(=O)n(-c3c(C)ccnc3C(C)C)c3nc(-c4c(O)cccc4F)c(F)cc23)C(C)C1	< 10 nM	< 10 nM	< 10 nM	< 10 nM	< 10 nM	27.3%	26.8%	23.9%	24.7%	23%	28%	25.4%	27%	26.9%	27.9%	25.1%	25.2%	28.5%	27.3%	24.9%	viability, T/C [6]: 24.3%; viability, T/C [9]: 29.5%; viability, T/C [26]: 31.1%; viability, T/C [12]: 29.4%; viability, T/C [27]: 27.8%; viability, T/C [28]: 30.2%; viability, T/C [29]: 30%; viability, T/C [15]: 32.8%; viability, T/C [30]: 35.1%; viability, T/C [31]: 32.5%; viability, T/C [32]: 33.1%; viability, T/C [18]: 28.1%; viability, T/C [33]: 29.9%; viability, T/C [34]: 30.8%; viability, T/C [35]: 34.6%
COc1cc2nccc(Oc3ccc(NC(=O)C4(C(=O)Nc5ccc(F)cc5)CC4)cc3)c2cc1OC + C=CC(=O)N1CCN(c2nc(=O)n(-c3c(C)ccnc3C(C)C)c3nc(-c4c(O)cccc4F)c(F)cc23)C(C)C1	1710 nM	1460 nM	2210 nM	1470 nM	< 31.6 nM	50.1%	52.9%	54.2%	54.7%	52.9%	64.6%	55.1%	57.3%	33%	39.8%	53.9%	73.4%	41.3%	57.3%	67.6%	viability, T/C [36]: 21.6%; viability, T/C [26]: 28.2%; viability, T/C [37]: 37.7%; viability, T/C [27]: 63.4%; viability, T/C [28]: 72.3%; viability, T/C [29]: 44%; viability, T/C [38]: 18.4%; viability, T/C [30]: 63.8%; viability, T/C [31]: 64.5%; viability, T/C [32]: 29.6%; viability, T/C [39]: 15.4%; viability, T/C [33]: 36.7%; viability, T/C [34]: 36%; viability, T/C [35]: 26.6%; viability, T/C [40]: 6.56%
CCN1CCN(Cc2ccc(Nc3ncc(F)c(-c4cc(F)c5nc(C)n(C(C)C)c5c4)n3)nc2)CC1	–	–	–	–	–	–	–	–	–	–	–	–	–	–	–	–	–	–	–	–	viability, T/C (compound 0.00316 µM): 102% [middle of 5 runs]; viability, T/C (compound 0.01 µM): 102% [middle of 5 runs]; viability, T/C (compound 0.0316 µM): 99.7% [middle of 5 runs]; viability, T/C (compound 0.1 µM): 98.1% [middle of 5 runs]; viability, T/C (compound 0.316 µM): 86.3% [middle of 5 runs]; viability, T/C (compound 1 µM): 68% [middle of 5 runs]; IC50 (curve of compound): > 1000 nM
CC(C)NCC(C(=O)N1CCN(c2ncnc3c2C(C)CC3O)CC1)c1ccc(Cl)cc1 (configuration not stated) + CNCc1ccccc1-c1csc(C(C)Nc2nc(C)nc3cc(OC)c(OC)cc23)c1	844 nM	608 nM	212 nM	< 31.6 nM	< 31.6 nM	119%	83%	89.5%	78.5%	81.3%	74.8%	0.41%	0.71%	0.24%	0.26%	83.4%	45.9%	17.2%	73.7%	32.4%	viability, T/C [36]: 10.3%; viability, T/C [26]: 13.4%; viability, T/C [37]: 10.2%; viability, T/C [27]: 35.6%; viability, T/C [28]: 23.4%; viability, T/C [29]: 16.9%; viability, T/C [38]: 9.94%; viability, T/C [30]: 0.27%; viability, T/C [31]: 0.47%; viability, T/C [32]: 0.17%; viability, T/C [39]: 0.26%; viability, T/C [33]: 0.26%; viability, T/C [34]: 0.25%; viability, T/C [35]: 0.23%; viability, T/C [40]: 0.33%
